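Five compound concentrations were applied to cells in 96-well plates for 48 hours; endpoints were derived by simple linear interpolation of the resulting dose-response curve. GI50 is the concentration that inhibits growth by half.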 Active and inactive are the calls of the source. No stated cut-off is given here; in the data, active = GI50 up to about 1.1 µM and inactive = higher.
Experiments:
Assay in all cases: NCI tumour cell line growth inhibition, 48 h
LOX IMVI = test system: LOX IMVI
SK-MEL-5 = test system: SK-MEL-5
SK-OV-3 = test system: SK-OV-3
CCRF-CEM = test system: CCRF-CEM
RXF 393 = test system: RXF 393
HL-60 = test system: HL-60
MDA-MB-231 = test system: MDA-MB-231
MDA-N = test system: MDA-N
OVCAR-4 = test system: OVCAR-4
SNB-75 = test system: SNB-75
SK-MEL-2 = test system: SK-MEL-2
T47D = test system: T47D
786-0 = test system: 786-0
HT-29 = test system: HT-29
SF-539 = test system: SF-539
OVCAR-3 = test system: OVCAR-3
RPMI-8226 = test system: RPMI-8226
UACC-62 = test system: UACC-62
CAKI-1 = test system: CAKI-1
ACHN = test system: ACHN

| SMILES | GI50 (LOX IMVI) | GI50 (SK-MEL-5) | GI50 (SK-OV-3) | GI50 (CCRF-CEM) | GI50 (RXF 393) | GI50 (HL-60) | GI50 (MDA-MB-231) | GI50 (MDA-N) | GI50 (OVCAR-4) | GI50 (SNB-75) | GI50 (SK-MEL-2) | GI50 (T47D) | GI50 (786-0) | GI50 (HT-29) | GI50 (SF-539) | GI50 (OVCAR-3) | GI50 (RPMI-8226) | GI50 (UACC-62) | GI50 (CAKI-1) | GI50 (ACHN) |
| --- | --- | --- | --- | --- | --- | --- | --- | --- | --- | --- | --- | --- | --- | --- | --- | --- | --- | --- | --- | --- |
| Nc1nncc2[nH]cnc12 | 25.5 µM (inactive) | 24.2 µM (inactive) | 41.5 µM (inactive) | 5.09 µM (inactive) | > 100 µM (inactive) | 15 µM (inactive) | 99.5 µM (inactive) | 49.5 µM (inactive) | > 100 µM (inactive) | > 56.9 µM (inactive) | > 100 µM (inactive) | > 75.9 µM (inactive) | 48.3 µM (inactive) | 39.4 µM (inactive) | 94.4 µM (inactive) | > 100 µM (inactive) | 14.4 µM (inactive) | 47.3 µM (inactive) | 66.2 µM (inactive) | 50.1 µM (inactive) |
| C[C@@H]1Nc2cc(NC(=O)OCCF)nc(N)c2N=C1c1ccccc1 | < 0.0001 µM (active) | < 0.0001 µM (active) | – | < 0.0001 µM (active) | 29 µM (inactive) | < 0.0001 µM (active) | < 0.0001 µM (active) | < 0.0001 µM (active) | – | 32.7 µM (inactive) | < 0.01 µM (active) | 61.9 µM (inactive) | < 0.0001 µM (active) | < 0.0001 µM (active) | < 0.0001 µM (active) | < 0.0001 µM (active) | < 0.0001 µM (active) | 34.8 µM (inactive) | > 100 µM (inactive) | 24.8 µM (inactive) |
| CCOC(=O)CCC(NC(=O)c1ccc(Nc2nc3ccccc3nc2C(=O)OCC)s1)C(=O)OCC (stereo not drawn) | > 100 µM (inactive) | > 100 µM (inactive) | > 100 µM (inactive) | – | 66.1 µM (inactive) | 36.6 µM (inactive) | 67.1 µM (inactive) | > 100 µM (inactive) | 37.2 µM (inactive) | > 100 µM (inactive) | > 100 µM (inactive) | > 100 µM (inactive) | 21.7 µM (inactive) | > 100 µM (inactive) | 63.4 µM (inactive) | > 100 µM (inactive) | > 100 µM (inactive) | 59.2 µM (inactive) | 81.3 µM (inactive) | – |
| N=C(Nc1nc(-c2ccccn2)cc2ccccc12)c1ccccn1 | 0.0266 µM (active) | 0.0817 µM (active) | 0.0308 µM (active) | 0.01 µM (active) | 0.0168 µM (active) | 0.01 µM (active) | < 0.0179 µM (active) | 0.272 µM (active) | < 0.0561 µM (active) | 0.361 µM (active) | – | 0.0244 µM (active) | 0.0317 µM (active) | 0.01 µM (active) | 0.097 µM (active) | 0.01 µM (active) | 0.00201 µM (active) | 0.0336 µM (active) | < 0.0123 µM (active) | < 0.0145 µM (active) |
| N[C@H](Cc1ccc2oc3cc(=O)c4ccccc4c-3nc2c1)C(=O)O | 33.2 µM (inactive) | 20.1 µM (inactive) | > 100 µM (inactive) | 20.9 µM (inactive) | 70.1 µM (inactive) | 27.7 µM (inactive) | 62.7 µM (inactive) | 15.3 µM (inactive) | > 100 µM (inactive) | 67 µM (inactive) | – | > 100 µM (inactive) | 89.9 µM (inactive) | 29.2 µM (inactive) | 42.8 µM (inactive) | 29.2 µM (inactive) | 24.2 µM (inactive) | 26.7 µM (inactive) | > 100 µM (inactive) | > 100 µM (inactive) |
| COC(=O)CSc1[nH]c2nc(C)nc(Nc3ccccc3)c2c1C#N | > 10 µM (inactive) | > 10 µM (inactive) | > 10 µM (inactive) | > 10 µM (inactive) | > 10 µM (inactive) | > 10 µM (inactive) | > 10 µM (inactive) | > 10 µM (inactive) | > 10 µM (inactive) | > 10 µM (inactive) | – | > 10 µM (inactive) | > 10 µM (inactive) | > 10 µM (inactive) | – | – | > 10 µM (inactive) | > 10 µM (inactive) | > 10 µM (inactive) | – |
| CC(=O)c1ccc2c3c1[C@H]1O[C@H]1c1cccc(c1-3)[C@@H]1O[C@H]21 | 0.31 µM (active) | 2.17 µM (inactive) | 5.32 µM (inactive) | 1.61 µM (inactive) | 1.93 µM (inactive) | 2.58 µM (inactive) | 2.14 µM (inactive) | 2.32 µM (inactive) | 1.67 µM (inactive) | 1.93 µM (inactive) | 2.74 µM (inactive) | 2.15 µM (inactive) | 2 µM (inactive) | 2.3 µM (inactive) | – | 3.27 µM (inactive) | 2.09 µM (inactive) | 2.01 µM (inactive) | 1.29 µM (inactive) | 1.94 µM (inactive) |
| CC(C)(Cc1ccccc1)N1C(=O)N1C(C)(C)Cc1ccccc1 | 17.7 µM (inactive) | 14.1 µM (inactive) | 57.4 µM (inactive) | 20.8 µM (inactive) | 14.8 µM (inactive) | 4.78 µM (inactive) | 28.1 µM (inactive) | 38.8 µM (inactive) | 34.7 µM (inactive) | 32.5 µM (inactive) | 19.7 µM (inactive) | 65.9 µM (inactive) | 21.6 µM (inactive) | 15.5 µM (inactive) | 33.3 µM (inactive) | > 100 µM (inactive) | 16.5 µM (inactive) | 23.8 µM (inactive) | > 100 µM (inactive) | – |
